In ChEMBL document CHEMBL1132382 (J Med Chem, 1999):
Converted amounts (≈) assume the structure as drawn. Each block holds one molecule with its values, some of them ahead of it.

Key:
Oryctolagus cuniculus [1] = organism: Oryctolagus cuniculus; assay: The compound was evaluated for fall in intraocular pressure (IOP) of Glaucomatous rabbits after treatment with one drop (50 microL) of a 2% solution at 60 min (pH 6.5); assay type: functional, Eye
Carbonic anhydrase 4 = target: T1, Carbonic anhydrase 4 (Bos taurus, UniProt Q95323)
T1 sequence (Q95323 whole entry): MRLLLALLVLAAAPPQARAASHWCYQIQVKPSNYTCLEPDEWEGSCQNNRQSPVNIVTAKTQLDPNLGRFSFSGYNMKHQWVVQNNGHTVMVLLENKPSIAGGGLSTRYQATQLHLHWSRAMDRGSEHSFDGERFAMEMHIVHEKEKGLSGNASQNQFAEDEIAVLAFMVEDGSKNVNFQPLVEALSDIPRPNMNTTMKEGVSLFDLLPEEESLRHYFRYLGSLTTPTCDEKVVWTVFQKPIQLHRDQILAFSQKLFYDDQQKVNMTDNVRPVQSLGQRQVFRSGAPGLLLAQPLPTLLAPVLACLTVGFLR
Description: Inhibitory activity against bovine carbonic anhydrase IV (CA4), isolated from bovine lung microsomes

Oryctolagus cuniculus [2] = organism: Oryctolagus cuniculus; assay: The compound was evaluated for fall in intraocular pressure (IOP) of Normotensive rabbits after treatment with one drop (50 microL) of a 2% solution at 90 min (pH 6.5); assay type: functional, Eye
Oryctolagus cuniculus [3] = organism: Oryctolagus cuniculus; assay: The compound was evaluated for fall in intraocular pressure (IOP) of Normotensive rabbits after treatment with one drop (50 microL) of a 2% solution at 60 min (pH 6.5); assay type: functional, Eye
Carbonic anhydrase 1 = Carbonic anhydrase 1 (Homo sapiens, UniProt P00915)
Chain of Carbonic anhydrase 1 (P00915 whole entry): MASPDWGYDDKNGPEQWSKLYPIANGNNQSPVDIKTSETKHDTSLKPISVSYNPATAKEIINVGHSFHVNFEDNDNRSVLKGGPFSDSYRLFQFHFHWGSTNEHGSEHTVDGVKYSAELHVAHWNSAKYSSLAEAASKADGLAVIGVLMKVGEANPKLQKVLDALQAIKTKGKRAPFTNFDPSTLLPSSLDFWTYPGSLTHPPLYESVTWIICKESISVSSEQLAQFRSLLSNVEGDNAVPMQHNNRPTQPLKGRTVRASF
Description: Inhibitory activity against human recombinant carbonic anhydrase I (CA1)

Oryctolagus cuniculus [4] = organism: Oryctolagus cuniculus; assay: The compound was evaluated for fall in intraocular pressure (IOP) of Normotensive rabbits after treatment with one drop (50 microL) of a 2% solution at 30 min (pH 6.5); assay type: functional, Eye
Oryctolagus cuniculus [5] = organism: Oryctolagus cuniculus; assay: The compound was evaluated for fall in intraocular pressure (IOP) of Glaucomatous rabbits after treatment with one drop (50 microL) of a 2% solution at 0 min (pH 6.5); assay type: functional, Eye
Oryctolagus cuniculus [6] = organism: Oryctolagus cuniculus; assay: The compound was evaluated for fall in intraocular pressure (IOP) of Normotensive rabbits after treatment with one drop (50 microL) of a 2% solution at 0 min (pH 6.5); assay type: functional, Eye
Oryctolagus cuniculus [7] = organism: Oryctolagus cuniculus; assay: The compound was evaluated for fall in intraocular pressure (IOP) of Glaucomatous rabbits after treatment with one drop (50 microL) of a 2% solution at 30 min (pH 6.5); assay type: functional, Eye
Oryctolagus cuniculus [8] = organism: Oryctolagus cuniculus; assay: The compound was evaluated for fall in intraocular pressure (IOP) of Glaucomatous rabbits after treatment with one drop (50 microL) of a 2% solution at 90 min (pH 6.5); assay type: functional, Eye
Oryctolagus cuniculus [9] = organism: Oryctolagus cuniculus; assay: The compound was evaluated for fall in intraocular pressure (IOP) of Normotensive rabbits after treatment with one drop (50 microL) of a 2% solution at 60 min (pH 6.4); assay type: functional, Eye
Oryctolagus cuniculus [10] = organism: Oryctolagus cuniculus; assay: The compound was evaluated for fall in intraocular pressure (IOP) of Normotensive rabbits after treatment with one drop (50 microL) of a 2% solution at 30 min (pH 6.4); assay type: functional, Eye
Oryctolagus cuniculus [11] = organism: Oryctolagus cuniculus; assay: The compound was evaluated for fall in intraocular pressure (IOP) of Normotensive rabbits after treatment with one drop (50 microL) of a 2% solution at 90 min (pH 6.4); assay type: functional, Eye
Oryctolagus cuniculus [12] = organism: Oryctolagus cuniculus; assay: The compound was evaluated for fall in intraocular pressure (IOP) of Normotensive rabbits after treatment with one drop (50 microL) of a 2% solution at 0 min (pH 6.4); assay type: functional, Eye
[13] = not given; remark: listed apart in the source
Oryctolagus cuniculus [14] = organism: Oryctolagus cuniculus; assay: The compound was evaluated for fall in intraocular pressure (IOP) of Normotensive rabbits after treatment with one drop (50 microL) of a 2% solution at 60 min (pH 5.6); assay type: functional, Eye
Oryctolagus cuniculus [15] = organism: Oryctolagus cuniculus; assay: The compound was evaluated for fall in intraocular pressure (IOP) of Normotensive rabbits after treatment with one drop (50 microL) of a 2% solution at 30 min (pH 5.6); assay type: functional, Eye
physchem = conditions: buffer, pH 7.4
Oryctolagus cuniculus [16] = organism: Oryctolagus cuniculus; assay: The compound was evaluated for fall in intraocular pressure (IOP) of Normotensive rabbits after treatment with one drop (50 microL) of a 2% solution at 0 min (pH 5.6); assay type: functional, Eye
Oryctolagus cuniculus [17] = organism: Oryctolagus cuniculus; assay: The compound was evaluated for fall in intraocular pressure (IOP) of Normotensive rabbits after treatment with one drop (50 microL) of a 2% solution at 90 min (pH 5.6); assay type: functional, Eye
[18] = octanol/water
Description: Partition coefficient (logD) (chloroform/buffer)

Oryctolagus cuniculus [19] = organism: Oryctolagus cuniculus; assay: The compound was evaluated for fall in intraocular pressure (IOP) of Narmotensive rabbits after treatment with one drop (50 microL) of a 2% solution at 30 min (pH 6.4); assay type: functional, Eye
Oryctolagus cuniculus [20] = organism: Oryctolagus cuniculus; assay: The compound was evaluated for fall in intraocular pressure (IOP) of Narmotensive rabbits after treatment with one drop (50 microL) of a 2% solution at 0 min (pH 6.4); assay type: functional, Eye
Oryctolagus cuniculus [21] = organism: Oryctolagus cuniculus; assay: The compound was evaluated for fall in intraocular pressure (IOP) of Glaucomatous rabbits after treatment with one drop (50 microL) of a 2% solution at 90 min (pH 6.4); assay type: functional, Eye
Oryctolagus cuniculus [22] = organism: Oryctolagus cuniculus; assay: The compound was evaluated for fall in intraocular pressure (IOP) of Glaucomatous rabbits after treatment with one drop (50 microL) of a 2% solution at 30 min (pH 6.4); assay type: functional, Eye
Oryctolagus cuniculus [23] = organism: Oryctolagus cuniculus; assay: The compound was evaluated for fall in intraocular pressure (IOP) of Glaucomatous rabbits after treatment with one drop (50 microL) of a 2% solution at 60 min (pH 6.4); assay type: functional, Eye
Oryctolagus cuniculus [24] = organism: Oryctolagus cuniculus; assay: The compound was evaluated for fall in intraocular pressure (IOP) of Narmotensive rabbits after treatment with one drop (50 microL) of a 2% solution at 90 min (pH 6.4); assay type: functional, Eye
Oryctolagus cuniculus [25] = organism: Oryctolagus cuniculus; assay: The compound was evaluated for fall in intraocular pressure (IOP) of Narmotensive rabbits after treatment with one drop (50 microL) of a 2% solution at 60 min (pH 6.4); assay type: functional, Eye
Oryctolagus cuniculus [26] = organism: Oryctolagus cuniculus; assay: The compound was evaluated for fall in intraocular pressure (IOP) of Glaucomatous rabbits after treatment with one drop (50 microL) of a 2% solution at 0 min ((pH 6.4); assay type: functional, Eye
Oryctolagus cuniculus [27] = organism: Oryctolagus cuniculus; assay: The compound was evaluated for fall in intraocular pressure (IOP) of Normotensive rabbits after treatment with one drop (50 microL) of a 2% solution at 30 min (pH 7.5); assay type: functional, Eye
Oryctolagus cuniculus [28] = organism: Oryctolagus cuniculus; assay: The compound was evaluated for fall in intraocular pressure (IOP) of glaucomatous rabbits after treatment with one drop (50 microL) of a 2% solution at 60 min (pH 7.5); assay type: functional, Eye
Oryctolagus cuniculus [29] = organism: Oryctolagus cuniculus; assay: The compound was evaluated for fall in intraocular pressure (IOP) of Normotensive rabbits after treatment with one drop (50 microL) of a 2% solution at 0 min (pH 7.5); assay type: functional, Eye
Oryctolagus cuniculus [30] = organism: Oryctolagus cuniculus; assay: The compound was evaluated for fall in intraocular pressure (IOP) of Normotensive rabbits after treatment with one drop (50 microL) of a 2% solution at 60 min (pH 7.5); assay type: functional, Eye
Oryctolagus cuniculus [31] = organism: Oryctolagus cuniculus; assay: The compound was evaluated for fall in intraocular pressure (IOP) of glaucomatous rabbits after treatment with one drop (50 microL) of a 2% solution at 30 min (pH 7.5); assay type: functional, Eye
Oryctolagus cuniculus [32] = organism: Oryctolagus cuniculus; assay: The compound was evaluated for fall in intraocular pressure (IOP) of glaucomatous rabbits after treatment with one drop (50 microL) of a 2% solution at 90 min (pH 7.5); assay type: functional, Eye
Oryctolagus cuniculus [33] = organism: Oryctolagus cuniculus; assay: The compound was evaluated for fall in intraocular pressure (IOP) of Normotensive rabbits after treatment with one drop (50 microL) of a 2% solution at 0 min (pH 5.5); assay type: functional, Eye
Oryctolagus cuniculus [34] = organism: Oryctolagus cuniculus; assay: The compound was evaluated for fall in intraocular pressure (IOP) of Normotensive rabbits after treatment with one drop (50 microL) of a 2% solution at 30 min (pH 5.5); assay type: functional, Eye
Oryctolagus cuniculus [35] = organism: Oryctolagus cuniculus; assay: The compound was evaluated for fall in intraocular pressure (IOP) of Normotensive rabbits after treatment with one drop (50 microL) of a 2% solution at 90 min (pH 5.5); assay type: functional, Eye
Oryctolagus cuniculus [36] = organism: Oryctolagus cuniculus; assay: The compound was evaluated for fall in intraocular pressure (IOP) of Normotensive rabbits after treatment with one drop (50 microL) of a 2% solution at 60 min (pH 5.5); assay type: functional, Eye

Compound: CN(CC(=O)Nc1ccc(S(N)(=O)=O)cc1F)C(=N)N
Ki (Carbonic anhydrase 4): 39 nM
Change in IOP (Oryctolagus cuniculus [2]): 5 mmHg
Change in IOP (Oryctolagus cuniculus [3]): 7.2 mmHg
Ki (Carbonic anhydrase 1): 510 nM
Change in IOP (Oryctolagus cuniculus [4]): 3 mmHg
Change in IOP (Oryctolagus cuniculus [6]): 0 mmHg

Compound: CCN(C(=O)CNC(=O)CN)C1CC(C)S(=O)(=O)c2sc(S(N)(=O)=O)cc21 (stereo not given)
Ki (Carbonic anhydrase 4): 31 nM
Change in IOP (Oryctolagus cuniculus [9]): 8.7 mmHg
Change in IOP (Oryctolagus cuniculus [10]): 4.9 mmHg
Ki (Carbonic anhydrase 1): 90 nM
Change in IOP (Oryctolagus cuniculus [11]): 6.9 mmHg
Change in IOP (Oryctolagus cuniculus [12]): 0 mmHg

Compound: CN(CC(=O)NCCC(=O)Nc1nnc(S(N)(=O)=O)s1)C(=N)N
kin: 8.5 h⁻¹
Ki (Carbonic anhydrase 4): 8 nM
Change in IOP (Oryctolagus cuniculus [27]): 10.7 mmHg
Ki (Carbonic anhydrase 1): 21 nM
Change in IOP (Oryctolagus cuniculus [28]): 14.2 mmHg
kin [13]: 4.7 h⁻¹
solubility (physchem): 75 mM (≈ 27.3 mg/mL)
logD [18]: 1.944
Change in IOP (Oryctolagus cuniculus [29]): 6.6 mmHg
Change in IOP (Oryctolagus cuniculus [30]): 9.8 mmHg
Change in IOP (Oryctolagus cuniculus [31]): 8.6 mmHg
Change in IOP (Oryctolagus cuniculus [32]): 14.3 mmHg

Compound: NCC(=O)NCCC(=O)Nc1nnc(S(N)(=O)=O)s1
Change in IOP (Oryctolagus cuniculus [33]): 0 mmHg
Ki (Carbonic anhydrase 4): 10 nM
Ki (Carbonic anhydrase 1): 21 nM
Change in IOP (Oryctolagus cuniculus [34]): 5 mmHg
Change in IOP (Oryctolagus cuniculus [35]): 8.4 mmHg
Change in IOP (Oryctolagus cuniculus [36]): 9.3 mmHg

The remaining molecules from weak to strong by Ki (Carbonic anhydrase 4), led by results:

Ki (Carbonic anhydrase 4): 55 nM
Ki (Carbonic anhydrase 1): 350 nM
Compound: NCC(=O)Nc1nnc(S(N)(=O)=O)s1
Change in IOP (Oryctolagus cuniculus [33]): 0 mmHg
Change in IOP (Oryctolagus cuniculus [34]): 2.9 mmHg
Change in IOP (Oryctolagus cuniculus [35]): 4.6 mmHg

Ki (Carbonic anhydrase 4): 45 nM
Ki (Carbonic anhydrase 1): 320 nM
Compound: NCC(=O)NCC(=O)Nc1nnc(S(N)(=O)=O)s1
Change in IOP (Oryctolagus cuniculus [19]): 5.6 mmHg
Change in IOP (Oryctolagus cuniculus [20]): 0 mmHg
Change in IOP (Oryctolagus cuniculus [21]): 13.8 mmHg
Change in IOP (Oryctolagus cuniculus [22]): 7.7 mmHg
Change in IOP (Oryctolagus cuniculus [23]): 12 mmHg
Change in IOP (Oryctolagus cuniculus [24]): 8.9 mmHg
Change in IOP (Oryctolagus cuniculus [25]): 9 mmHg
Change in IOP (Oryctolagus cuniculus [26]): 0 mmHg

Ki (Carbonic anhydrase 4): 35 nM
Ki (Carbonic anhydrase 1): 170 nM
Compound: CN(CC(=O)Nc1nnc(S(N)(=O)=O)s1)C(=N)N
Change in IOP (Oryctolagus cuniculus [1]): 13.4 mmHg
Change in IOP (Oryctolagus cuniculus [2]): 9.1 mmHg
Change in IOP (Oryctolagus cuniculus [3]): 10.1 mmHg
Change in IOP (Oryctolagus cuniculus [4]): 6.5 mmHg
Change in IOP (Oryctolagus cuniculus [5]): 0 mmHg
Change in IOP (Oryctolagus cuniculus [6]): 0 mmHg
Change in IOP (Oryctolagus cuniculus [7]): 8.5 mmHg
Change in IOP (Oryctolagus cuniculus [8]): 14.5 mmHg

kin: 7.8 h⁻¹
Ki (Carbonic anhydrase 4): 30 nM
Ki (Carbonic anhydrase 1): 78 nM
kin [13]: 3.9 h⁻¹
solubility (physchem): 62 mM (≈ 24.5 mg/mL)
logD [18]: 1.785
Compound: CCNC1CC(C)S(=O)(=O)c2sc(S(=O)(=O)NC(=O)CNC)cc21 (stereo not given)
Change in IOP (Oryctolagus cuniculus [14]): 7 mmHg
Change in IOP (Oryctolagus cuniculus [15]): 3.1 mmHg
Change in IOP (Oryctolagus cuniculus [16]): 0 mmHg
Change in IOP (Oryctolagus cuniculus [17]): 5.5 mmHg
